Reference: paper doi:10.1101/2023.07.10.548257 (bioRxiv, 2024)
Substitutions are numbered along the chain they refer to. pEC50: −log10 of the molar value.

Tests used:
[1] = molecular target: T1, full-length SHP2^T42A (Homo sapiens, UniProt Q06124, T42A); test: SHP2 activation assay using phosphopeptides (DiFMUP), SHP2 T42A; format: biochemical; conditions: activation of full-length SHP2 T42A (0.05 nM) by phosphopeptide; DiFMUP substrate; HEPES pH 7.2 assay buffer; mean of N (column N)
T1 construct: Full-length SHP2 constructs were diluted in assay buffer; His6-TEV (N, cleaved yes); made in house; host or cells: E. coli BL21(DE3)
T1 sequence (Q06124 1-593 T42A): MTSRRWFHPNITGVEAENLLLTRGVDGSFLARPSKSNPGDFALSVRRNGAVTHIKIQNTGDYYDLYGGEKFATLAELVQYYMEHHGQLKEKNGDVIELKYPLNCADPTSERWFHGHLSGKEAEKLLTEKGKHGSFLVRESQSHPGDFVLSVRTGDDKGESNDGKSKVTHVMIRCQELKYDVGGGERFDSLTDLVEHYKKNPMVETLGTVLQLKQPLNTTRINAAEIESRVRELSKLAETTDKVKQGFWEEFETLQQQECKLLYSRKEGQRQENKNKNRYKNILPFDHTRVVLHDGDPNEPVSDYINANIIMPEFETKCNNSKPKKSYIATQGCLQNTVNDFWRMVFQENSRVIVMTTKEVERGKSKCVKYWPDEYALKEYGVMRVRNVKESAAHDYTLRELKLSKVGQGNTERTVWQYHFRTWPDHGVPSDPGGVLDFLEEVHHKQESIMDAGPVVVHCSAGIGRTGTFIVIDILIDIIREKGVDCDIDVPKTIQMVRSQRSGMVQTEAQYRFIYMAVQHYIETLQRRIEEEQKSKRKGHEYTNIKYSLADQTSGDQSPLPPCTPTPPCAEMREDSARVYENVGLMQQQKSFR

[2] = molecular target: T2, full-length SHP2^WT (Homo sapiens, UniProt Q06124); test: SHP2 activation assay using phosphopeptides (DiFMUP), SHP2 WT; format: biochemical; conditions: activation of full-length SHP2 WT (0.05 nM) by phosphopeptide; DiFMUP substrate; 60 mM HEPES pH 7.2, 75 mM KCl, 75 mM NaCl, 1 mM EDTA, 0.05% Tween-20, 0.5 mM TCEP; fluorescence read every 25 s for 6 min; mean of N (column N)
T2 construct: Full-length SHP2 constructs were diluted in assay buffer; His6-TEV (N, cleaved yes); made in house; host or cells: E. coli BL21(DE3)
T2 sequence (Q06124 1-593): T1 sequence (Q06124 1-593 T42A) with A42T
Protocol: SHP2 activation assays using phosphopeptides
Full-length SHP2 constructs were diluted in assay buffer (60 mM HEPES pH 7.2, 75 mM KCl, 75 mM NaCl,1 mM EDTA, 0.05% Tween-20, with 0.5 mM TCEP freshly added) to a 2X concentration of 0.1 nM. Peptides were serially diluted in assay buffer, with the last point of the concentration series fully without peptide. 15 μL of peptide and 15 μL of 800 μM DiFMUP was added to a black 96-well half area plate. Right before starting the plate reader assay, 30 μL SHP2 was added to each well a Supplementary Information - page 4 of 18 […]
final concentration of 0.05nM. Kinetic measurements (Ex 358/Em […]) were taken on a BioTek Neo2 plate reader every 25 seconds for 6 minutes. […]
OD600 reached 0.5. 20 mL of cell suspension was induced at 25 °C using a final concentration of 0.4% arabinose until the OD600 ~ 1 (after approximately 4 hours). The cells were spun down at 4000 rpm for 15 minutes, and the pellet was resuspended in PBS so that the OD600 ~1.5. The cells were stored in the fridge and used within a week.
For each sample, 75 μL of Dynabeads™ FlowComp™ Flexi Kit were washed twice in 1 mL SH2 buffer (50 mM HEPES pH 7.5, 150 mM NaCl, 1 mM TCEP, and 0.2% BSA) on a magnetic rack.
The beads were then resuspended in 75 μL of SH2 buffer. SH2 domains were thawed quickly and 20 μM of protein was added to the beads. SH2 buffer was added up to 150 μL, and the suspension was incubated for 1 hour at 4 °C while rotating. After 1 hour, the suspension was placed on a magnetic rack and washed twice with 1 mL SH2 buffer.
Preparing the phosphorylated cells
150 μL of prepared cells per sample were spun down for 4000 rpm for 5 minutes at 4 °C.
Kinase screen buffer was prepared (50 mM Tris, 10 mM magnesium chloride, 150 mM sodium chloride; add 2 mM sodium orthovanadate and 1 mM TCEP fresh) and the cells of each sample were resuspended in 100 μL kinase screen buffer. Kinases c-Src, c-Abl, AncSZ, Eph1B were added to a final concentration of 2.5 µM each, creatine phosphate was added to a final concentration of 5 mM, and phosphokinase was added to a final concentration of 50 µg/mL. The suspension was incubated at 37 °C for 5 minutes before ATP was added to a final concentration of 1 mM. This mixture was incubated at 37 °C for 3 hours. After 3 hours, EDTA was added to a final concentration of 25 mM to quench the reaction. The input library control sample was not phosphorylated. These cells were spun down at 4000 rpm for 15 minutes at 4 °C. The cells were then resuspended in 100 µL of SH2 buffer + 0.1% BSA. Phosphorylation of the cells was confirmed by labeling with the PY20-PerCP-eFluor 710 pan-phosphotyrosine antibody followed by analysis via flow cytometry.
Enriching for cells displaying high-affinity phosphopeptide ligands
100 μL of phosphorylated cells were mixed with 75 µL SH2-beads for 1 hour at 4 °C while rotating. After 1 hour, samples were placed on a magnetic rack, supernatant was removed and 1 mL SH2 buffer was added to each sample. This was rotated for 30 minutes at 4 °C to wash the beads.
After this wash, the beads were placed on a magnetic rack, the supernatant was removed and 50 µL […]
Preparing sequencing samples & deep sequencing
All SH2-selected samples and the input library control were resuspended in 50 µL MilliQ water, vortexed, and boiled for 10 minutes at 100 °C. The boiled lysate was used as the DNA template in a PCR reaction using the TruSeq-eCPX-Fwd and TruSeq-eCPX-Rev primers. The mixture resulting from this PCR was used directly into a second PCR to append Illumina sequencing adaptors and Supplementary Information - page 5 of 18

## CC[C@H](C)[C@H](NC(=O)[C@@H](NC(=O)[C@H](C)NC(=O)[C@H](Cc1ccc(OP(=O)(O)O)cc1)NC(=O)[C@@H](NC(=O)[C@@H]1CCCN1C(=O)[C@H](CCC(=O)O)NC(=O)[C@@H]1CCCN1C(=O)[C@H](CO)NC(=O)[C@@H](NC(C)=O)C(C)C)[C@@H](C)CC)[C@@H](C)O)C(=O)N[C@@H](CC(=O)O)C(=O)N[C@@H](CC(=O)O)C(=O)N[C@@H](CC(C)C)C(N)=O
[1]
  pEC50: 5.16
[2]
  pEC50: 4.40

## CC[C@H](C)[C@H](NC(=O)[C@H](CC(=O)O)NC(=O)[C@H](C)NC(=O)[C@H](Cc1ccc(OP(=O)(O)O)cc1)NC(=O)[C@H](CCCCN)NC(=O)[C@@H](NC(=O)[C@H](CC(=O)O)NC(=O)CNC(=O)[C@H](CCCCN)NC(=O)[C@H](CCSC)NC(C)=O)C(C)C)C(=O)N[C@@H](CCC(=O)O)C(=O)N[C@@H](CO)C(=O)N[C@@H](CO)C(N)=O
[1]
  pEC50: 4.82
[2]
  pEC50: 4.04

## CC(=O)N1CCC[C@H]1C(=O)N[C@H](C(=O)N[C@@H](Cc1ccccc1)C(=O)N[C@@H](CO)C(=O)N[C@H](C(=O)N[C@@H](CC(=O)O)C(=O)N[C@@H](Cc1ccc(OP(=O)(O)O)cc1)C(=O)NCC(=O)N[C@@H](CCC(=O)O)C(=O)N[C@@H](CC(C)C)C(=O)N[C@@H](CC(=O)O)C(=O)N[C@@H](Cc1ccccc1)C(=O)N[C@@H](CCC(N)=O)C(N)=O)C(C)C)C(C)C
[1]
  pEC50: 5.54
[2]
  pEC50: 4.72

## CC(=O)N[C@@H](CO)C(=O)N[C@H](C(=O)NCC(=O)N[C@@H](CO)C(=O)N[C@H](C(=O)N[C@@H](CC(=O)O)C(=O)N[C@@H](Cc1ccc(OP(=O)(O)O)cc1)C(=O)N[C@@H](CC(C)C)C(=O)N[C@@H](C)C(=O)N[C@@H](CC(C)C)C(=O)N[C@@H](CC(=O)O)C(=O)N[C@@H](Cc1ccccc1)C(=O)N[C@@H](CCC(N)=O)C(N)=O)C(C)C)[C@@H](C)O
[1]
  pEC50: 6.04
[2]
  pEC50: 5.07

## CSCC[C@H](NC(=O)[C@H](CC(C)C)NC(=O)[C@H](CCC(N)=O)NC(=O)[C@H](C)NC(=O)[C@H](Cc1ccc(OP(=O)(O)O)cc1)NC(=O)[C@H](CC(N)=O)NC(=O)[C@H](CC(C)C)NC(=O)[C@H](C)NC(=O)[C@H](C)NC(=O)[C@H](CCCCN)NC(=O)[C@H](CCCCN)NC(C)=O)C(=O)N[C@@H](Cc1ccccc1)C(=O)N1CCC[C@H]1C(N)=O
[1]
  pEC50: 6.13
[2]
  pEC50: 5.88

## CC[C@H](C)[C@H](NC(=O)[C@H](CC(N)=O)NC(=O)[C@@H](NC(=O)[C@H](Cc1ccc(OP(=O)(O)O)cc1)NC(=O)[C@H](CCC(=O)O)NC(=O)CNC(=O)[C@@H]1CCCN1C(=O)[C@H](CO)NC(=O)[C@H](CCCCN)NC(=O)[C@@H]1CCCN1C(C)=O)C(C)C)C(=O)N[C@@H](CCC(=O)O)C(=O)N[C@@H](Cc1ccccc1)C(=O)NCC(N)=O
[1]
  pEC50: 4.70
[2]
  pEC50: 4.53

## CC(=O)N[C@@H](C)C(=O)N[C@@H](CCCCN)C(=O)N[C@@H](CO)C(=O)NCC(=O)N[C@@H](C)C(=O)N[C@H](C(=O)N[C@@H](Cc1ccc(OP(=O)(O)O)cc1)C(=O)N[C@@H](CO)C(=O)N[C@@H](CCC(=O)O)C(=O)N[C@@H](CC(C)C)C(=O)N[C@@H](CC(N)=O)C(=O)N[C@@H](Cc1ccccc1)C(=O)NCC(N)=O)C(C)C
[1]
  pEC50: 4.49
[2]
  pEC50: 3.63

## CC[C@H](C)[C@H](NC(=O)[C@H](Cc1ccc(OP(=O)(O)O)cc1)NC(=O)[C@H](CC(N)=O)NC(=O)[C@H](CC(C)C)NC(=O)CNC(=O)[C@H](CC(N)=O)NC(=O)[C@H](CCC(=O)O)NC(=O)[C@H](CC(C)C)NC(C)=O)C(=O)N[C@@H](CC(=O)O)C(=O)N[C@@H](CC(C)C)C(=O)N[C@@H](CC(=O)O)C(=O)N[C@@H](CC(C)C)C(=O)N[C@H](C(N)=O)C(C)C
[1]
  pEC50: 6.24
[2]
  pEC50: 5.76

## CC[C@H](C)[C@H](NC(=O)[C@@H](NC(=O)[C@H](C)NC(=O)[C@H](Cc1ccc(OP(=O)(O)O)cc1)NC(=O)[C@H](CCC(=O)O)NC(=O)[C@@H](NC(=O)[C@H](CCC(N)=O)NC(=O)[C@H](CCC(=O)O)NC(=O)[C@@H]1CCCN1C(=O)[C@@H](NC(C)=O)C(C)C)[C@@H](C)O)[C@@H](C)O)C(=O)N[C@H](C(=O)N[C@@H](Cc1ccccc1)C(=O)N1CCC[C@H]1C(N)=O)C(C)C
[1]
  pEC50: 6.06
[2]
  pEC50: 5.27
